Measurements as given in paper PMC4398456, “Evidence for a Novel Mechanism of Antimicrobial Action of a Cyclic R-,W-Rich Hexapeptide” (PLoS ONE, 2015).
Converted amounts (≈) assume the structure as drawn. Non-standard residues stand in square brackets, D forms with d. Residues, ends and D or L forms follow the SMILES beside them. *: point of attachment. NBD = O=[N+]([O-])c1ccc(*)c2nonc12; Dap = NC[C@H](N)C(=O)O

Experiments:
E. coli = assay: Peptide localisation by fluorescence microscopy (CLSM); type: cell-based; conditions: 12 μM peptide, 30 minutes, LB-agarose pad; at least three independent experiments
Protocol: Cells from an overnight culture were diluted 1:100 in fresh medium and grown to mid-log phase. LB-agarose pads were prepared by adding 1.5% agarose to LB medium and heated until the agarose was completely dissolved. In the case of translocation experiments the solution was slightly cooled down before peptides were added at a final concentration of 12 μM. 100 μl LB-agarose was applied to a cover slip and stored at 8°C in the dark for ~30 minutes. The hardened LB-pad was placed on top of 10 μl of bacterial culture (OD600 0.4) and live cell imaging was performed for up to 100 minutes in a heat controlled chamber to avoid desiccation.
Specific staining of CL with NAO has been shown before and is neither influenced by fixation nor depolarisation of the membrane. The emission shift from green to red fluorescence (513 nm to 640 nm) was reported to be exclusive for binding to CL and is caused by narrow stacking of dye molecules. Images were captured using a Zeiss Axiovert M200 inverted fluorescence microscope and an LSM 510 ConfoCor2 (Germany) with plan-apochromat 63, 100×/1.4 objective, respectively, and processed with ImageJ.

B. subtilis = assay: as above; type: cell-based; conditions: 12 μM peptide, 30 minutes, LB-agarose pad; at least three independent experiments
E. coli DH5α = conditions: microdilution; reported before; cited from earlier work
B. subtilis DSM 347 = conditions: microdilution; reported before; cited from earlier work
B. subtilis L-170 = assay: HPLC uptake study with o-nitroaniline modification; type: cell-based; conditions: 10^9 cells/ml DPBSG, 24 μM peptide, 30 min, 37°C; o-nitroaniline treatment; fluorescence HPLC; three independent experiments in triplicates
Source text: (§1) As the cytoplasmic membrane of bacteria has been identified as the target of cWFW, cell wall-deficient L-form strains derived from E. coli (LWF+) and B. subtilis (L-170) were used to quantify peptide uptake into the cytoplasm. The approach, originally developed for the investigation of peptide uptake into eukaryotic cells, is based on chemical modification of the amino group of lysine side chains with o-nitroaniline and fluorescence-based HPLC detection of non-modified and modified sequences. Fluorescence labelling was necessary for quantification of cyclic hexapeptide uptake.
(§2) Cells were cultivated to an OD550 ± 0.8 in conical flasks as described above. After harvesting and centrifugation at 2000 × g (Sigma 3K12, Germany) for 12 min and removal of culture medium, cells were washed twice with DPBSG (DPBS containing 1g/l glucose). […] Protein content was determined with BCA Protein Assay Kit (Thermo Scientific, Germany) according to manufacturer’s instructions. […]
(§3) HPLC analysis was performed as described before using a Jasco LC-2000 Plus (U.S.) with a ProntoSil 300-5-C18-H column (250 × 4.6 mm, 5 μm) (Bischoff Chromatography, Germany) and a precolumn with PolyenCap A300, 10 μm. Peptide amounts were quantified via calibration curves for carboxyfluorescein (ex 445 nm, em 520 nm, gain 1000) and NBD fluorescence (ex 470 nm, em 520 nm, gain 1000), respectively.

E. coli L-WF+ = assay: HPLC uptake study with o-nitroaniline modification; type: cell-based; conditions: 10^9 cells/ml DPBSG, 24 μM peptide, 30 min, 37°C; o-nitroaniline treatment; fluorescence HPLC; three independent experiments in triplicates
Source text: as §1, §2, §3

N=C(N)NCCC[C@@H]1NC(=O)[C@H](CCCNC(=N)N)NC(=O)[C@H](Cc2c[nH]c3ccccc23)NC(=O)[C@H](CNc2ccc([N+](=O)[O-])c3nonc23)NC(=O)[C@H](Cc2c[nH]c3ccccc23)NC(=O)[C@H](CCCNC(=N)N)NC1=O [cW[NBD]W] (cyclo(RRRW[Dap](NBD)W))
peptide localisation in live cells (E. coli): not detectable within the cytoplasm
peptide localisation in live cells (B. subtilis): not detectable within the cytoplasm
MIC E. coli DH5α (E. coli DH5α): 50 µM (≈ 54.5 µg/mL)
MIC B. subtilis DSM 347 (B. subtilis DSM 347): 25 µM (≈ 27.3 µg/mL)

N=C(N)NCCC[C@@H]1NC(=O)[C@H](CCCCN)NC(=O)[C@H](Cc2c[nH]c3ccccc23)NC(=O)[C@H](CNc2ccc([N+](=O)[O-])c3nonc23)NC(=O)[C@H](Cc2c[nH]c3ccccc23)NC(=O)[C@H](CCCCN)NC1=O [cR2[NBD]] (cyclo(KRKW[Dap](NBD)W))
fraction of unmodified peptide, inaccessible for chemical modification, of the total cell-bound peptides (B. subtilis L-170): ~30%
fraction of unmodified peptide, inaccessible for chemical modification, of the total cell-bound peptides (E. coli L-WF+): about 20%
MIC E. coli DH5α (E. coli DH5α): 50 µM (≈ 51.7 µg/mL)
MIC B. subtilis DSM 347 (B. subtilis DSM 347): 12 µM (≈ 12.4 µg/mL)
